# Measured values: patent publication US20230091225A1, “Bifunctional chimeric heterocyclic compounds for targeted degradation of androgen receptors and use thereof” (HINOVA PHARMACEUTICALS INC., priority 2019, published 2023)
# Where two headings read alike, the source gives them in different places.
# Target: T1, androgen receptor (AR) (Homo sapiens, UniProt P10275)
# T1 sequence (P10275 1-920): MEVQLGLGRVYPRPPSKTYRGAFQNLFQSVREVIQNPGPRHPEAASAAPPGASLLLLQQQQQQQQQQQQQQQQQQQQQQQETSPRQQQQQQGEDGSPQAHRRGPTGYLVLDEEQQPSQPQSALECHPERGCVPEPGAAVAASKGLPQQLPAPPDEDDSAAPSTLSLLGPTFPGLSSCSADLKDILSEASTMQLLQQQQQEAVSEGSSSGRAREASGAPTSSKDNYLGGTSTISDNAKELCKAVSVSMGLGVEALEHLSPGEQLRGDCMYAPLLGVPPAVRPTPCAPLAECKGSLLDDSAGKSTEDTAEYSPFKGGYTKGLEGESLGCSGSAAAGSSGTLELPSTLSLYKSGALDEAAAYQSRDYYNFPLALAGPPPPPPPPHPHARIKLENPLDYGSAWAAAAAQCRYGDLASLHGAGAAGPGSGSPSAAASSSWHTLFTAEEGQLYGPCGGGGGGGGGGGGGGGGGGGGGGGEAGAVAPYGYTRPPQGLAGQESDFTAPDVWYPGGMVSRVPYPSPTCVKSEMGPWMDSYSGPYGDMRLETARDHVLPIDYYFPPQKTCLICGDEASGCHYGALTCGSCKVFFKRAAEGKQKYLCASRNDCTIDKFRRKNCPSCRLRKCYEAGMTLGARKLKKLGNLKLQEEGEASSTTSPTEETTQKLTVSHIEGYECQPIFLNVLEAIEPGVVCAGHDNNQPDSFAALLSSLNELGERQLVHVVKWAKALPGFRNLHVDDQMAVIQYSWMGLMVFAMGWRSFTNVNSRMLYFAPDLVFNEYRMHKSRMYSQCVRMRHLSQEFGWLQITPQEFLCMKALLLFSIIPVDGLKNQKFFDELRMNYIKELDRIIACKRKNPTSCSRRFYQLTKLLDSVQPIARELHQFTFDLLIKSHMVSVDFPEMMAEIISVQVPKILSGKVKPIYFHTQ
# Assay: Degradation of androgen receptor (AR) protein in VCaP cells by ELISA
# Format: cell-based
# Settings: for Dmax: VCaP
# [1] = AR degradation, VCaP cells, 16 h, ELISA, Table 3-2, read-out: DC50
# [2] = AR degradation, VCaP cells, 16 h, ELISA, Table 3-2, read-out: Dmax (%)
# [3] = AR degradation, VCaP cells, 16 h, ELISA, Table 3-1, read-out: DC50
# [4] = AR degradation, VCaP cells, 16 h, ELISA, Table 3-1, read-out: Dmax (%)
# [5] = AR degradation, VCaP cells, 16 h, ELISA, Table 3-1
compound,measurement,setting,value
COCCOc1cc(O[C@H]2CC[C@H](NC(=O)c3ccc(N4CCC(CN5CCC6(CC5)CN(c5ccc7c(c5)C(=O)N(C5CCC(=O)NC5=O)C7=O)C6)CC4)nn3)CC2)ccc1C#N (stereo partly shown) [Compound 155],DC50,,< 0.01 µM
same,Dmax,,> 80%
N#Cc1ccc(O[C@H]2CC[C@H](NC(=O)c3cnc(N4CCC(CN5CCC6(CC5)CN(c5cc7c(cc5F)C(=O)N(C5CCC(=O)NC5=O)C7)C6)CC4)nn3)CC2)cc1Cl (stereo partly shown) [Compound 417],DC50,[1],< 0.01 µM
same,Dmax,[2],> 80%
"C[C@@H]1CN(c2cnc(C(=O)N[C@H]3CC[C@H](Oc4ccc(C#N)c(Cl)c4)CC3)cn2)CCN1C[C@H]1[C@@H]2CN(c3cc4c(cc3F)C(=O)N(C3CCC(=O)NC3=O)C4=O)C[C@@H]21 (stereo partly drawn) [Compound 266, N-((1r,4R)-4-(3-chloro-4-cyanophenoxy)cyclohexyl)-5-((3R)-4-((1R,5S,6s)-3-(2-(2,6-dioxopiperidin-3-yl)-6-fluoro-1,3-dioxoisoindolin-5-yl)-3-azabicyclo[3.1.0]n-hexane-6-yl)methyl-3-methylpiperazin-1-yl)pyrazine-2-carboxamide]",DC50,[3],0.01 to 0.1 µM
same,Dmax,[4],> 80%
N#Cc1ccc(O[C@H]2CC[C@H](NC(=O)c3ccc(N4CCC(CN5CCC(Oc6ccc7c(c6)C(=O)N(C6CCC(=O)NC6=O)C7=O)CC5)CC4)nn3)CC2)cc1Cl (stereo partly shown) [Compound 147],DC50,[3],0.01 to 0.1 µM
same,Dmax,[4],60 to 80%
CC1(C)[C@H](Oc2ccc(C#N)c(Cl)c2)C(C)(C)[C@H]1N1Cc2nc(N3CCC(CN4CCN(c5ccc6c(c5)C(=O)N(C5CCC(=O)NC5=O)C6=O)CC4)CC3)cnc2C1=O (stereo partly shown) [Compound 385],DC50,[1],0.1 to 0.3 µM
same,Dmax,[2],60 to 80%
CC1(C)[C@H](Oc2ccc(C#N)c(Cl)c2)C(C)(C)[C@H]1N1Cc2nc(C#CC3CCC(N4CCC5(CC4)CN(c4cc6c(cc4F)C(=O)N(C4CCC(=O)NC4=O)C6=O)C5)CC3)ccc2C1=O (stereo partly shown) [Compound 363],DC50,[3],0.01 to 0.1 µM
same,Dmax,[4],60 to 80%
N#Cc1ccc(O[C@H]2CC[C@H](NC(=O)c3cnc(N4CC5(CCN(CC6CCN(c7cc8c(cc7F)C(=O)N(C7CCC(=O)NC7=O)C8=O)CC6)C5)C4)cn3)CC2)cc1Cl (stereo partly shown) [Compound 96],DC50,[3],< 0.01 µM
same,Dmax,[4],> 80%
"CC1(C)[C@H](Oc2ccc(C#N)c(Cl)c2)C(C)(C)[C@H]1N1Cc2nc(C#CC3CCC(N4CC5(CCN(c6ccc7c(c6)C(=O)N(C6CCC(=O)NC6=O)C7=O)C5)C4)CC3)ccc2C1=O (stereo partly shown) [Compound 369, 2-Chloro-4-((1r,3r)-3-(2-((4-(6-(2-(2,6-dioxopiperidin-3-yl)-1,3-dioxoisoindolin-5-yl)-2,6-diazaspiro[3.4]octane-2-yl)cyclohexyl)ethynyl)-5-oxo-5,7-dihydro-pyrrolo[3,4-b]pyridin-6-yl)-2,2,4,4-tetramethylcyclobutoxy) benzonitrile]",Dmax (%),[5],+++ (80%-60%)
same,DC50,[3],0.01 to 0.1 µM
"CC1(C)[C@H](Oc2ccc(C#N)c(Cl)c2)C(C)(C)[C@H]1N1Cc2nc(C#CC3CCC(N4CC5(CCN(c6ccc7c(c6)C(=O)N(C6CCC(=O)NC6=O)C7=O)CC5)C4)CC3)ccc2C1=O (stereo partly shown) [Compound 376, 2-Chloro-4-((1r,3r)-3-(2-((4-(7-(2-(2,6-dioxopiperidin-3-yl)-1,3-dioxoisoindolin-5-yl)-2,7-diazaspiro[3.5]nonan-2-yl)cyclohexyl)ethynyl)-S-oxo-5,7-dihydro-pyrrolo[3,4-b]pyridin-6-yl)-2,2,4,4-tetramethylcyclobutoxy) benzonitrile]",Dmax (%),[5],++ (60%-40%)
same,DC50,[3],> 0.3 µM
"N#Cc1ccc(O[C@H]2CC[C@H](NC(=O)c3ccc(N4CC5(CCN(CC6CCN(c7ccc8c(c7)C(=O)N(C7CCC(=O)NC7=O)C8=O)CC6)CC5)C4)nn3)CC2)cc1Cl (stereo partly shown) [Compound 282, N-((1r,4r)-4-(3-chloro-4-cyanophenoxy)cyclohexyl)-6-(7-((1-(2-(2,6-dioxopiperidin-3-yl)-1,3-dioxoisoindolin-5-yl)piperidine-4-yl)methyl)-2,7-diazaspiro[3.5]nonan-2-yl)pyridazine-3-formamide]",DC50,[3],< 0.01 µM
same,Dmax,[4],> 80%
"N#Cc1ccc(O[C@H]2CC[C@H](NC(=O)c3cnc(N4CC5(CCN(C6CCN(c7cc8c(cc7F)C(=O)N(C7CCC(=O)NC7=O)C8=O)CC6)CC5)C4)cn3)CC2)cc1Cl (stereo partly shown) [Compound 242, N-((1r,4r)-4-(3-chloro-4-cyanophenoxy)cyclohexyl)-5-(7-(1-(2-(2,6-dioxopiperidin-3-yl)-6-fluoro-1,3-dioxoisoindolin-5-yl)piperidine-4-yl)-2,7-diazaspiro[3.5]nonan-2-yl)pyrazine-2-carboxamide]",DC50,[3],< 0.01 µM
same,Dmax,[4],> 80%
"N#Cc1ccc(O[C@H]2CC[C@H](NC(=O)c3cnc(N4CCC(N5CCC6(CC5)CN(c5ccc7c(c5)C(=O)N(C5CCC(=O)NC5=O)C7=O)C6)CC4)cn3)CC2)cc1Cl (stereo partly shown) [Compound 280, N-((1r,4r)-4-(3-chloro-4-cyanophenoxy)cyclohexyl)-5-(4-(2-(2-(2,6-dioxopiperidin-3-yl)-1,3-dioxoisoindolin-5-yl)-2,7-diazaspiro[3.5]nonan-7-yl)piperidin-1-yl)pyrazine-2-carboxamide]",DC50,[3],0.01 to 0.1 µM
same,Dmax,[4],> 80%
N#Cc1ccc(OC2CCC(NC(=O)c3cnc(N4C[C@H]5CC[C@@H](C4)N5C[C@H]4[C@@H]5CN(c6cc7c(cc6F)C(=O)N(C6CCC(=O)NC6=O)C7=O)C[C@@H]54)cn3)CC2)cc1Cl (stereo partly shown) [Compound 240],DC50,,0.01 to 0.1 µM
same,Dmax,,60 to 80%
N#Cc1ccc(O[C@H]2CC[C@H](NC(=O)c3ccc(N4CCC5(CCN(CC6CCN(c7cc8c(cc7F)C(=O)N(C7CCC(=O)NC7=O)C8=O)CC6)CC5)CC4)nn3)CC2)cc1Cl (stereo partly shown) [Compound 261],DC50,[3],< 0.01 µM
same,Dmax,[4],> 80%
"CC(=O)O[C@@H]1C[C@H](C(=O)NC2(c3ccc(-c4scnc4C)cc3)CC2)N(C(=O)[C@@H](NC(=O)COCCCCC#Cc2ccc(C(=O)N[C@H]3C(C)(C)[C@H](Oc4ccc(C#N)c(Br)c4)C3(C)C)cc2)C(C)(C)C)C1 [Compound 8, (3R,5R)-1-((S)-2-(2-((6-(4-(((1R,3R)-3-(3-bromo-4-cyanophenoxy)-2,2,4,4-tetramethylcyclobutyl)carbamoyl)phenyl)hex-5-yn-1-yl)oxy)acetylamino)-3,3-dimethylbutyryl)-5-((1-(4-(4-methylthiazol-5-yl)phenyl)cyclopropyl)carbamoyl) pyrrolidin-3-yl acetate]",inhibition at 0.1 µM,"percentage of degraded AR at 100 nM, VCaP cells, 16 h, ELISA, read-out: % degradation",25 to 49%
"CC1(C)[C@H](Oc2ccc(C#N)c(Cl)c2)C(C)(C)[C@H]1N1Cc2nc(C#CC3CCC(N4CC5(CCN(c6cc7c(cc6F)C(=O)N(C6CCC(=O)NC6=O)C7=O)CC5)C4)CC3)ccc2C1=O (stereo partly shown) [Compound 379, 2-Chloro-4-((1r,3r)-3-(2-((4-(7-(2-(2,6-dioxopiperidin-3-yl)-6-fluoro-1,3-dioxoisoindolin-5-yl)-2,7-diazaspiro[3.5]nonan-2-yl)cyclohexyl)ethynyl)-5-oxo-5,7-dihydro-pyrrolo[3,4-b]pyridin-6-yl)-2,2,4,4-tetramethylcyclobutoxy) benzonitrile]",Dmax (%),[5],++++ (>80%)
same,DC50,[3],0.01 to 0.1 µM
"N#Cc1ccc(O[C@H]2CC[C@H](NC(=O)c3ccc(N4CCN(C[C@@H]5[C@H]6CN(c7cc8c(cc7F)C(=O)N(C7CCC(=O)NC7=O)C8=O)C[C@@H]56)CC4)nn3)CC2)cc1Br (stereo partly drawn) [Compound 126, N-((1r,4r)-4-(3-bromo-4-cyanophenoxy)cyclohexyl)-6-(4-(((1R,5S,6s)-3-(2-(2,6-dioxopiperidin-3-yl)-6-fluoro-1,3-dioxoisoindolin-5-yl)-3-azabicyclo[3.1.0]hexan-6-yl)methyl)piperazin-1-yl)pyridazine-3-amide]",DC50,[3],< 0.01 µM
same,Dmax,,> 80%
"N#Cc1ccc(O[C@H]2CC[C@H](NC(=O)c3nnc(N4CC5(CCN(C6CCN(c7ccc8c(c7)C(=O)N(C7CCC(=O)NC7=O)C8=O)CC6)CC5)C4)s3)CC2)cc1Cl (stereo partly shown) [Compound 193, N-((1r,4r)-4-(3-chloro-4-cyanophenoxy)cyclohexyl)-5-(7-(1-(2-(2,6-dioxopiperidin-3-yl)-1,3-dioxoisoindolin-5-yl)piperidine-4-yl)-2,7-diazaspiro[3.5]nonan-2-yl)-1,3,4-thiadiazole-2-carboxamide]",DC50,[3],< 0.01 µM
same,Dmax,[4],> 80%
N#Cc1ccc(O[C@H]2CC[C@H](NC(=O)c3cnc(N4CC5CN(CC6CCN(c7cc8c(cc7F)C(=O)N(C7CCC(=O)NC7=O)C8=O)CC6)CC5C4)nc3)CC2)cc1Cl (stereo partly shown) [Compound 272],DC50,[3],< 0.01 µM
same,Dmax,[4],> 80%
